Reference: US11702429B2, “mTORC modulators and uses thereof” (Aeovian Pharmaceuticals, Inc., priority 2019, dated 2023)
Where two headings read alike, the source gives them in different places.

Columns and labels:
mTORC2 = target: T1, mTORC2 (Homo sapiens, UniProt P42345+P62942); assay: Inhibition assay for mTORC2: phosphorylation of pAkt at Ser473, AlphaLISA in PC3 cells; type: cell-based; settings: for IC50: read-out: pIC50 mTORC2 (converted)
T1 construct: endogenous in cells; host or cells: PC3 cells (human prostate adenocarcinoma)
Method: (§1) The IC50s of the inhibition of mTORC1 and mTORC2 were determined in vitro by determining the phosphorylation of pS6K at position Thr389 (mTORC1 inhibition) and pAkt at Ser473 (mTORC2 inhibition). In vitro studies were performed with AlphaLISA® technology using PC3 cells (Prostate Adenocarcinoma; Human (Homo sapiens)). The cells were seeded in 96 well plates and were treated for 24 hours with the different compounds. […] All analysis were performed using GraphPad Prism 7.0 (GraphPad Software, San Diego, USA).

mTORC1 = target: T2, mTORC1 (Homo sapiens, UniProt P42345+P62942); assay: Inhibition assay for mTORC1: phosphorylation of pS6K at Thr389, AlphaLISA in PC3 cells; type: cell-based; settings: for IC50: read-out: pIC50 mTORC1 (converted)
T2 construct: endogenous in cells; host or cells: PC3 cells (human prostate adenocarcinoma)
Method: as §1

[1] = PC3 cells, treated 24 hours, pAkt Ser473, AlphaLISA, C16 diastereomer mixtures not separated
[2] = PC3 cells, treated 24 hours, pS6K Thr389, AlphaLISA, C16 diastereomer mixtures not separated

T1 sequence (P62942 2-108 limits assumed, other chains not shown): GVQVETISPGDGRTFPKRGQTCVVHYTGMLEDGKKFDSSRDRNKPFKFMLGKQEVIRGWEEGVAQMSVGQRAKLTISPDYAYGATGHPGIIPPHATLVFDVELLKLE

Compound | IC50 (mTORC2) | IC50 (mTORC1) | other results
COCCCO[C@@H]1CC[C@@H](C[C@@H](C)[C@@H]2CC(=O)[C@H](C)/C=C(\C)[C@@H](O)[C@@H](OC)C(=O)[C@H](C)C[C@H](C)/C=C/C=C/C=C(\C)C(OC)C[C@@H]3CC[C@@H](C)[C@@](O)(O3)C(=O)C(=O)N3CCCCC3C(=O)O2)C[C@H]1OC (stereo partly drawn) [Compound 308, (1R,9S,12S,15R,16E,18R,19R,21R,23S,24E,26E,28E,30S,32S,35R)-1,18-dihydroxy-19,30-dimethoxy-12-[(1R)-2-[(1S,3R,4R)-3-methoxy-4-(3-methoxypropoxy)cyclohexyl]-1-methyl-ethyl]-15,17,21,23,29,35-hexamethyl-11,36-dioxa-4-azatricyclo[30.3.1.0^4,9]hexatriaconta-16,24,26,28-tetraene-2,3,10,14,20-pentone] | < 1000 nM | < 0.316 nM | 
COCCOC1C[C@@H]2CC[C@@H](C)[C@@](O)(O2)C(=O)C(=O)N2CCCC[C@H]2C(=O)O[C@H]([C@H](C)C[C@@H]2CC[C@@H](OCCCN3CC4(COC4)C3)[C@H](OC)C2)CC(=O)[C@H](C)/C=C(\C)[C@@H](O)[C@@H](OC)C(=O)[C@H](C)C[C@H](C)/C=C/C=C/C=C/1C (mixture of isomers) [Compound 26] |  |  | IC50 (mTORC2; [1]): > 10000 nM; IC50 (mTORC1; [2]): < 0.316 nM
COC1C[C@@H]2CC[C@@H](C)[C@@](O)(O2)C(=O)C(=O)N2CCCCC2C(=O)O[C@H]([C@H](C)C[C@@H]2CC[C@@H](OCCN3CCOCC3)[C@H](OC)C2)CC(=O)[C@H](C)/C=C(\C)[C@@H](O)[C@@H](OC)C(=O)[C@H](C)C[C@H](C)/C=C/C=C/C=C/1C (some centres unmarked) [Compound 325] | < 1000 nM | < 0.316 nM | 
COC1C[C@@H]2CC[C@@H](C)[C@@](O)(O2)C(=O)C(=O)N2CCCCC2C(=O)O[C@H]([C@H](C)C[C@@H]2CC[C@@H](OC(=O)NCCn3cnnn3)[C@H](OC)C2)CC(=O)[C@H](C)/C=C(\C)[C@@H](O)[C@@H](OC)C(=O)[C@H](C)C[C@H](C)/C=C/C=C/C=C/1C (some centres unmarked) [Compound 312] | < 1000 nM | < 0.316 nM | 
COC1C[C@@H]2CC[C@@H](C)[C@@](O)(O2)C(=O)C(=O)N2CCCCC2C(=O)O[C@H]([C@H](C)C[C@@H]2CC[C@@H](OCc3ccccc3)[C@H](OC)C2)CC(=O)[C@H](C)/C=C(\C)[C@@H](O)[C@@H](OC)C(=O)[C@H](C)C[C@H](C)/C=C/C=C/C=C/1C (some centres unmarked) [Compound 305] | < 1000 nM | < 0.316 nM | 
COC1CC2CCC(C)C(O)(O2)C(=O)C(=O)N2CCCCC2C(=O)OC(C(C)CC2CCC(OCCc3ccccc3)C(OC)C2)CC(=O)C(C)C=C(C)C(O)C(OC)C(=O)C(C)CC(C)C=CC=CC=C1C (centres unmarked) [Compound 348] | < 1000 nM | < 0.316 nM | 
COC1C[C@@H]2CC[C@@H](C)[C@@](O)(O2)C(=O)C(=O)N2CCCCC2C(=O)O[C@H]([C@H](C)C[C@@H]2CC[C@@H](OC(=O)N(CCO)CCO)[C@H](OC)C2)CC(=O)[C@H](C)/C=C(\C)[C@@H](O)[C@@H](OC)C(=O)[C@H](C)C[C@H](C)/C=C/C=C/C=C/1C (stereo partly drawn) [Compound 357, [(1R,2R,4S)-4-[(2R)-2-[(1R,9S,12S,15R,16E,18R,19R,21R,23S,24E,26E,28E,30S,32S,35R)-1,18-dihydroxy-19,30-dimethoxy-15,17,21,23,29,35-hexamethyl-2,3,10,14,20-pentaoxo-11,36-dioxa-4-azatricyclo[30.3.1.0^4,9]hexatriaconta-16,24,26,28-tetraen-12-yl]propyl]-2-methoxy-cyclohexyl] N,N-bis(2-hydroxyethyl)carbamate] | < 1000 nM | < 0.316 nM | 
COC1C[C@@H]2CC[C@@H](C)[C@@](O)(O2)C(=O)C(=O)N2CCCCC2C(=O)O[C@H]([C@H](C)C[C@@H]2CC[C@@H](OC(=O)N(C)CCN(C)C)[C@H](OC)C2)CC(=O)[C@H](C)/C=C(\C)[C@@H](O)[C@@H](OC)C(=O)[C@H](C)C[C@H](C)/C=C/C=C/C=C/1C (some centres unmarked) [Compound 359] | < 1000 nM | < 0.316 nM | 
COCCCO[C@@H]1CC[C@@H](C[C@@H](C)[C@@H]2CC(=O)[C@H](C)/C=C(\C)[C@@H](O)[C@@H](OC)C(=O)[C@H](C)C[C@H](C)/C=C/C=C/C=C(\C)C(OCCOC)C[C@@H]3CC[C@@H](C)[C@@](O)(O3)C(=O)C(=O)N3CCCCC3C(=O)O2)C[C@H]1OC (some centres unmarked) [Compound 14] |  |  | pIC50 mTORC2 (mTORC2; [1]): A (PIC50 for mTORC2 of <5 as A); pIC50 mTORC1 (mTORC1; [2]): A (pIC50 for mTORC1 of >9.5 as A)
CO[C@@H]1C[C@H](C[C@@H](C)[C@@H]2CC(=O)[C@H](C)/C=C(\C)[C@@H](O)[C@@H](OC)C(=O)[C@H](C)C[C@H](C)/C=C/C=C/C=C(\C)C(OCCCCO)C[C@@H]3CC[C@@H](C)[C@@](O)(O3)C(=O)C(=O)N3CCCCC3C(=O)O2)CC[C@H]1O (some centres unmarked) [Compound 221] | 1000 to 10000 nM | < 0.316 nM | 
CO[C@@H]1C[C@H](C[C@@H](C)[C@@H]2CC(=O)[C@H](C)/C=C(\C)[C@@H](O)[C@@H](OC)C(=O)[C@H](C)C[C@H](C)/C=C/C=C/C=C(\C)C(c3cccn3C)C[C@@H]3CC[C@@H](C)[C@@](O)(O3)C(=O)C(=O)N3CCCCC3C(=O)O2)CC[C@H]1O (some centres unmarked) [Compound 212] | 1000 to 10000 nM | 0.316 to 3.16 nM | 
CO[C@@H]1C[C@H](C[C@@H](C)[C@@H]2CC(=O)[C@H](C)/C=C(\C)[C@@H](O)[C@@H](OC)C(=O)[C@H](C)C[C@H](C)/C=C/C=C/C=C(\C)C(OCCCO)C[C@@H]3CC[C@@H](C)[C@@](O)(O3)C(=O)C(=O)N3CCCCC3C(=O)O2)CC[C@H]1O (some centres unmarked) [Compound 210] | < 1000 nM | 0.316 to 3.16 nM | 
CO[C@@H]1C[C@H](C[C@@H](C)[C@@H]2CC(=O)[C@H](C)/C=C(\C)[C@@H](O)[C@@H](OC)C(=O)[C@H](C)C[C@H](C)/C=C/C=C/C=C(\C)C(c3cc(C)cs3)C[C@@H]3CC[C@@H](C)[C@@](O)(O3)C(=O)C(=O)N3CCCCC3C(=O)O2)CC[C@H]1O (some centres unmarked) [Compound 203] | 1000 to 10000 nM | > 3.16 nM | 
COC1C[C@@H]2CC[C@@H](C)[C@@](O)(O2)C(=O)C(=O)N2CCCCC2C(=O)O[C@H]([C@H](C)C[C@@H]2CC[C@@H](OC(=O)NCCCN(CCO)CCO)[C@H](OC)C2)CC(=O)[C@H](C)/C=C(\C)[C@@H](O)[C@@H](OC)C(=O)[C@H](C)C[C@H](C)/C=C/C=C/C=C/1C (some centres unmarked) [Compound 358] | < 1000 nM | < 0.316 nM | 
CO[C@@H]1C[C@H](C[C@@H](C)[C@@H]2CC(=O)[C@H](C)/C=C(\C)[C@@H](O)[C@@H](OC)C(=O)[C@H](C)C[C@H](C)/C=C/C=C/C=C(\C)C(OCCO)C[C@@H]3CC[C@@H](C)[C@@](O)(O3)C(=O)C(=O)N3CCCCC3C(=O)O2)CC[C@H]1O (stereo partly drawn) [Compound 219, (1R,9S,12S,15R,16E,18R,19R,21R,23S,24E,26E,28E,32S,35R)-1,18-dihydroxy-30-(2-hydroxyethoxy)-12-[(1R)-2-[(1S,3R,4R)-4-hydroxy-3-methoxy-cyclohexyl]-1-methyl-ethyl]-19-methoxy-15,17,21,23,29,35-hexamethyl-11,36-dioxa-4-azatricyclo[30.3.1.0^4,9]hexatriaconta-16,24,26,28-tetraene-2,3,10,14,20-pentone] | > 10000 nM | 0.316 to 3.16 nM | 
CO[C@@H]1C[C@H](C[C@@H](C)[C@@H]2CC(=O)[C@H](C)/C=C(\C)[C@@H](O)[C@@H](OC)C(=O)[C@H](C)C[C@H](C)/C=C/C=C/C=C(\C)C(OC(C)C)C[C@@H]3CC[C@@H](C)[C@@](O)(O3)C(=O)C(=O)N3CCCCC3C(=O)O2)CC[C@H]1O (stereo partly drawn) [Compound 208, (1R,9S,12S,15R,16E,18R,19R,21R,23S,24E,26E,28E,32S,35R)-1,18-dihydroxy-12-[(1R)-2-[(1S,3R,4R)-4-hydroxy-3-methoxy-cyclohexyl]-1-methyl-ethyl]-30-isopropoxy-19-methoxy-15,17,21,23,29,35-hexamethyl-11,36-dioxa-4-azatricyclo[30.3.1.0^4,9]hexatriaconta-16,24,26,28-tetraene-2,3,10,14,20-pentone] | 1000 to 10000 nM | 0.316 to 3.16 nM | 
COC1C[C@@H]2CC[C@@H](C)[C@@](O)(O2)C(=O)C(=O)N2CCCCC2C(=O)O[C@H]([C@H](C)C[C@@H]2CC[C@@H](OCCCN3CCC(O)CC3)[C@H](OC)C2)CC(=O)[C@H](C)/C=C(\C)[C@@H](O)[C@@H](OC)C(=O)[C@H](C)C[C@H](C)/C=C/C=C/C=C/1C (some centres unmarked) [Compound 368] | < 1000 nM | < 0.316 nM | 
CO[C@@H]1C[C@H](C[C@@H](C)[C@@H]2CC(=O)[C@H](C)/C=C(\C)[C@@H](O)[C@@H](OC)C(=O)[C@H](C)C[C@H](C)/C=C/C=C/C=C(\C)C(OCCCc3ccccc3)C[C@@H]3CC[C@@H](C)[C@@](O)(O3)C(=O)C(=O)N3CCCCC3C(=O)O2)CC[C@H]1O (some centres unmarked) [Compound 207] | 1000 to 10000 nM | 0.316 to 3.16 nM | 
COC1CC2CCC(C)C(O)(O2)C(=O)C(=O)N2CCCCC2C(=O)OC(C(C)CC2CCC(OCCCN3CCOC(C)C3)C(OC)C2)CC(=O)C(C)C=C(C)C(O)C(OC)C(=O)C(C)CC(C)C=CC=CC=C1C (centres unmarked) [Compound 310] | < 1000 nM | < 0.316 nM | 
COC1C[C@@H]2CC[C@@H](C)[C@@](O)(O2)C(=O)C(=O)N2CCCCC2C(=O)O[C@H]([C@H](C)C[C@@H]2CC[C@@H](OCCOCCOCCOCCOCCO)[C@H](OC)C2)CC(=O)[C@H](C)/C=C(\C)[C@@H](O)[C@@H](OC)C(=O)[C@H](C)C[C@H](C)/C=C/C=C/C=C/1C (some centres unmarked) [Compound 350] | < 1000 nM | < 0.316 nM | 
CO[C@@H]1C[C@H](C[C@@H](C)[C@@H]2CC(=O)[C@H](C)/C=C(\C)[C@@H](O)[C@@H](OC)C(=O)[C@H](C)C[C@H](C)/C=C/C=C/C=C(\C)C(OCCO)C[C@@H]3CC[C@@H](C)[C@@](O)(O3)C(=O)C(=O)N3CCCC[C@H]3C(=O)O2)CC[C@H]1OCCCN1CCO[C@H](C)C1 (mixture of isomers) [Compound 13] |  |  | IC50 (mTORC1; [2]): < 0.316 nM
